From paper PMC8080777, “Discovery, optimization, and evaluation of non-bile acid FXR/TGR5 dual agonists” (Scientific Reports, 2021) come the findings set out here.

Assay [1] has as its target T1, FXR (Homo sapiens, UniProt Q96RI1).
T1 construct: host or cells: CHO cells
T1 sequence (Q96RI1 1-486): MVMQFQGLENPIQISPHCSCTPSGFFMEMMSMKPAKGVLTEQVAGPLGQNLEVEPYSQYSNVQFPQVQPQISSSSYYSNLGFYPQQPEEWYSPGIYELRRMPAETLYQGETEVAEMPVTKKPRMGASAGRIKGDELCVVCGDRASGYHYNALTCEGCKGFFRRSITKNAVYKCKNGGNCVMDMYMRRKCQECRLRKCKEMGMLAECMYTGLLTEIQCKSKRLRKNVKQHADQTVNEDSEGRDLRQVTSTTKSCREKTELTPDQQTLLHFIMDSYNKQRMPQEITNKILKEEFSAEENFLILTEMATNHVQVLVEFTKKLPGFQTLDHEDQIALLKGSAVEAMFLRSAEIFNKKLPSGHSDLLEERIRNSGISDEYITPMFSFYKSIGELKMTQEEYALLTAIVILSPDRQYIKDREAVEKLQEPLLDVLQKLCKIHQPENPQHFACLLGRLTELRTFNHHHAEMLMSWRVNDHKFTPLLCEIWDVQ
The experiment in a line: CHO cell-based FXR luciferase reporter assay (Indigo Biosciences). The conditions noted are these: for FXR Efficacy (%) (0.1 µM) / FXR Efficacy (%) (1 µM) / FXR Efficacy (%) (10 µM): % vs OCA 1 µM as 100%. As to the method: To evaluate direct agonist activities against FXR, test compounds were evaluated using a CHO cell-based FXR assay by Indigo Biosciences (State College, PA), in which cells were transfected with an FXR luciferase reporter system.
To directly evaluate the in vitro agonist activity towards FXR, test compounds were evaluated in CHO cells transfected with FXR responsive luciferase reporter (Nuclear Receptor & In Vitro Toxicology Solutions, Indigo Biosciences, State College, PA, USA). […] Each compound was tested in duplicate, and the average value was reported[35],[36].
(§1) The cell recovery medium (CRM, Human Farnesoid X Receptor (NR1H4, FXR reporter assay system, Indigo Biosciences, State College, PA, USA) and compound screening medium (CSM, Human Farnesoid X Receptor (NR1H4, FXR reporter assay system, Indigo Biosciences, State College, PA, USA) were removed from the freezer and thawed in a water bath at 37 °C. Test compounds were dissolved in dimethyl sulfoxide (DMSO, FUJIFILM Wako Pure Chemical Corporation, Osaka city, Osaka, Japan), and the treatment medium was prepared and diluted with CSM to achieve a final concentration of 0.2% total DMSO. The reporter cells were thawed by transferring 3.3 mL CRM at 37 °C into tubes of frozen cells. The tube containing reporter cells was recapped, and it was immediately place in a 37 °C water bath for 5 min. The reporter cells were gently inverted several times, and 100 µL cell suspension was dispensed into each well. One hundred microliters of treatment media was added into wells. Subsequently, the assay plate was kept at 37 °C, and it was incubated with 5% CO2 for 22 h. To prepare luciferase detection reagent (LDR), the detection substrate was gently mixed with detection buffer, media contents were removed from each well, and 100 µL LDR was added to each well of the assay plate. The assay plate was allowed to rest at room temperature for 5 min, and luminescence was quantified using the Multi-Mode Microplate Reader (FlexStation 3, Molecular Devices Inc., San Jose, CA, USA)[36].
S4. In vitro, in vivo assay, and selectvity.
To directly evaluate the in vitro agonist activity towards FXR, test compounds were evaluated in CHO cells transfected with FXR responsive luciferase reporter (Nuclear Receptor & In Vitro Toxicology Solutions, Indigo Biosciences, State College, PA, USA). Cells were incubated with […]
(FlexStation 3, Molecular Devices Inc., San Jose, CA, USA). Efficacies are reported relative to […]
reporter on of 1 µM. Each compound was tested in duplicate, and the average value was […]
as §1, with “sulfoxide (DMSO ,” for “sulfoxide (DMSO,”, “Osaka, Jap an),” for “Osaka, Japan),”, “a 37°C” for “a 37 °C”, “5% CO 2” for “5% CO2”, “using […]” for “using the Multi-Mode Microplate Reader (FlexStation 3, Molecular Devices Inc., San Jose, CA, USA)[36].”
(In general: A reporter such as luciferase makes a cellular process visible.)

The target in assay [2] is T2, TGR5 (Homo sapiens, UniProt Q8TDU6).
T2 construct: host or cells: CHO cells
T2 sequence (Q8TDU6 1-330): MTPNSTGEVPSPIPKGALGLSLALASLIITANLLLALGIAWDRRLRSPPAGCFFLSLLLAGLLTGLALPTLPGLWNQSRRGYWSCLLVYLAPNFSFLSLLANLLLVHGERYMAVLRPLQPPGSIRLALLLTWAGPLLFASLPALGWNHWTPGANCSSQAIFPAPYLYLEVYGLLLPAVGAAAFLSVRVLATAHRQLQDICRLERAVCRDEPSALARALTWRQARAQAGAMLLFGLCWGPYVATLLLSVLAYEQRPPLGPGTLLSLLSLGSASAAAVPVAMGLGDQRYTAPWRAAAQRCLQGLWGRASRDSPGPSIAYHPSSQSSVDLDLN
The experiment in a line: TGR5 cAMP assay in CHO cells transfected with TGR5 (cAMP Hunter eXpress, Discover X). The format is cell-based. The conditions noted are these: for TGR5 Efficacy (%) (1 µM) / TGR5 Efficacy (%) (10 µM): % vs INT-767 10 µM as 100%. On the procedure: TGR5 agonist activity was evaluated by transfecting CHO cells with TGR5 using the Discover X expression kit (cAMP Hunter eXpress GPCR Assay, Discover X Fremont, CA). Cells were incubated with test compounds for 0.5 h, and intracellular cAMP levels were measured using the multi-mode microplate reader.
(§2) TGR5 agonist activity was evaluated by transfecting CHO cells with TGR5 using the Discover X expression kit (cAMP Hunter eXpress Assay Kit, Discover X Fremont, CA, USA). Cells were incubated with the test compounds for 0.5 h, and intracellular cAMP levels were measured using Multi-Mode Microplate Reader (FlexStation 3, Molecular Devices Inc., San Jose, CA, USA).
Each compound was tested at concentrations of 10, 1, or 0.1 µM in duplicate (n = 2), with the average value shown.
S4. In vitro, in vivo assay, and selectvity. […]
In vitro TGR5 agonist assay protocol
as §2
Each compound was tested at concentrations of 10, 1, or 0.1 µM in duplicate (n=2), with the […]
parameter logistic equation, Y = min + (max - min)/(1 + 10^(n * (log10(EC50) - log10(conc)))), in […]
Background: cAMP levels reflect the balance of adenylyl cyclase and phosphodiesterase activity.

Take `CCc1cnccc1C(=O)N(CC12CCC(c3ccc(OC)c(C)c3)(CC1)CC2)c1cc(F)cc(Cl)c1` [Compound 20j]: in assay [1], the “FXR Efficacy (%) (0.1 µM)” value is reported as 13.5% and the “FXR Efficacy (%) (1 µM)” value stood at 71.7%. Further, in assay [2], the “TGR5 Efficacy (%) (1 µM)” value is recorded as 21.5% and the “TGR5 Efficacy (%) (10 µM)” value is 71.1%.

For `COC(=O)/C=C/c1ccc(C)c(N(Cc2ccc(-c3ccc(N(C)C)cc3)cc2)C(=O)c2ccncc2C)c1` [Compound 13h], the “FXR Efficacy (%) (1 µM)” value in assay [1] stood at 25.3%. The “TGR5 Efficacy (%) (10 µM)” value in assay [2] came out at 0.2%.

As to `Cc1cnccc1C(=O)N(Cc1ccc(-c2ccc(N(C)C)cc2)cc1)c1cccc(-c2cnn(C(C)C)c2)c1F` [Compound 13t], in assay [1], the “FXR agonist activity (in words)” value was “strong FXR agonist activities” and the “FXR Efficacy (%) (1 µM)” value worked out at 92.6%. The “TGR5 Efficacy (%) (10 µM)” value in assay [2] was determined as 8.3%.

On to `Cc1cnccc1C(=O)N(Cc1ccc(-c2ccc(N(C)C)cc2)cc1)c1cc(Cl)ccc1C` [Compound 13p], for which the “FXR Efficacy (%) (1 µM)” value in assay [1] was 1.9%. Further, in assay [2], the “TGR5 agonist activity (in words)” value was “good potency against TGR5” and the “TGR5 Efficacy (%) (10 µM)” value came to 93.4%.

Turning to `Cc1cnccc1C(=O)N(CC12CCC(c3ccc(N(C)C)cc3)(CC1)CC2)c1cc(Cl)cc(Cl)c1` [Compound 20s], in assay [1], the “FXR agonist activity (in words)” value is listed as “high potency against FXR”, the “FXR Efficacy (%) (0.1 µM)” value worked out at 56.4% and the “FXR Efficacy (%) (1 µM)” value is reported as 95.3%. The “TGR5 Efficacy (%) (1 µM)” value in assay [2] came out at 18.9%.

For `COC(=O)/C=C/c1cccc(N(Cc2ccc(-c3ccc(N(C)C)cc3)cc2)C(=O)c2ccncc2C)c1C` [Compound 13i], in assay [1], the “FXR agonist activity (in words)” value is “weak FXR/TGR5 dual agonist activity” and the “FXR Efficacy (%) (1 µM)” value turned out to be 32.1%. In addition, in assay [2], the “TGR5 agonist activity (in words)” value was “weak FXR/TGR5 dual agonist activity” and the “TGR5 Efficacy (%) (10 µM)” value came to 47.2%.

As to `COc1cc(Cl)cc(N(CC23CCC(c4ccc(N(C)C)cc4)(CC2)CC3)C(=O)c2ccncc2C)c1` [Compound 20t], in assay [1], the “FXR Efficacy (%) (0.1 µM)” value amounted to 32.8% and the “FXR Efficacy (%) (1 µM)” value is 77.3%. In assay [2], the “TGR5 Efficacy (%) (1 µM)” value is 25.0%.

As to `COc1ccc(C23CCC(CN(C(=O)c4ccncc4C)c4cc(Cl)cc(Cl)c4)(CC2)CC3)cc1Cl` [Compound 20v], in assay [1], the “FXR Efficacy (%) (0.1 µM)” value was determined as 65.4% and the “FXR Efficacy (%) (1 µM)” value was found to be 79.6%. Also, the “TGR5 Efficacy (%) (1 µM)” value in assay [2] worked out at 33.5%.

For the compound `COC(=O)/C=C/c1cccc(N(Cc2ccc(-c3ccc(N(C)C)cc3)cc2)C(=O)c2ccncc2)c1` [Compound 13b], in assay [1], the “FXR Efficacy (%) (1 µM)” value is given as 16.7% and the “FXR Efficacy (%) (10 µM)” value is recorded as 86.9%. Besides, in assay [2], the “TGR5 agonist activity (in words)” value is “inactive against TGR5” and the “TGR5 Efficacy (%) (10 µM)” value is -2.8%.

On to `Cc1cc(F)ccc1N(Cc1ccc(-c2ccc(N(C)C)cc2)cc1)C(=O)c1ccncc1` [Compound 13f], for which, in assay [1], the “FXR Efficacy (%) (1 µM)” value was 0.5%. The “TGR5 Efficacy (%) (10 µM)” value in assay [2] stood at 32.0%.

For the compound `Cc1cnccc1C(=O)N(Cc1ccc(-c2ccc(N(C)C)cc2)cc1)c1cc(Cl)cc(Br)c1` [Compound 13k], in assay [1], the “FXR agonist activity (in words)” value is “dual potencies against both FXR and TGR5”; the “FXR Efficacy (%) (1 µM)” value was 75.9%. In assay [2], the “TGR5 agonist activity (in words)” value is “dual potencies against both FXR and TGR5”; the “TGR5 Efficacy (%) (10 µM)” value is given as 47.4%.

In the case of `COc1ccc(C2C3CCC2CC(CN(C(=O)c2ccncc2C)c2cc(Cl)cc(Cl)c2)C3)cc1C` (stereo not shown) [Compound 20g], the “FXR Efficacy (%) (1 µM)” value in assay [1] was found to be 51.1%. Further, the “TGR5 Efficacy (%) (10 µM)” value in assay [2] is -5.2%.

Turning to `COC(=O)/C=C/c1cccc(N(Cc2ccc(-c3ccc(N(C)C)cc3)cc2)C(=O)c2ccccc2)c1` [Compound 13d], in assay [1], the “FXR Efficacy (%) (1 µM)” value was determined as 24.5% and the “FXR Efficacy (%) (10 µM)” value was found to be 88.9%. For the same compound, the “TGR5 Efficacy (%) (10 µM)” value in assay [2] was determined as 0.0%.

`Cc1cnccc1C(=O)N(Cc1ccc(-c2ccc(N(C)C)cc2)cc1)c1ccc(F)cc1C` [Compound 13e]: in assay [1], the “FXR Efficacy (%) (1 µM)” value is 2.0%. Also, in assay [2], the “TGR5 agonist activity (in words)” value was “strong TGR5 agonist activity” and the “TGR5 Efficacy (%) (10 µM)” value is 87.5%.

On to `Cc1cc(F)ccc1N(Cc1ccc(-c2ccc(N(C)C)cc2)cc1)C(=O)c1cccnc1` [Compound 13g], for which, in assay [1], the “FXR Efficacy (%) (1 µM)” value is 1.2%. Besides, the “TGR5 Efficacy (%) (10 µM)” value in assay [2] stood at 0.8%.

With `COc1ccc([C@@H]2CC[C@@H](CN(C(=O)c3ccncc3C)c3cc(Cl)cc(Cl)c3)C(C)C2)cc1C` (stereo partly shown) [Compound 20e], in assay [1], the “FXR agonist activity (in words)” value is given as “partial FXR agonists”, the “FXR Efficacy (%) (1 µM)” value was determined as 69.1% and the “FXR Efficacy (%) (10 µM)” value turned out to be 72.6%. In assay [2], the “TGR5 agonist activity (in words)” value is “weak TGR5 agonist” and the “TGR5 Efficacy (%) (10 µM)” value was 33.9%.

With `Cc1cnccc1C(=O)N(Cc1ccc(-c2ccc(N(C)C)cc2)cc1)c1cc(Cl)cc(-c2cnn(C(C)C)c2)c1` [Compound 13o], the “FXR Efficacy (%) (1 µM)” value in assay [1] worked out at 68.8%. Moreover, the “TGR5 Efficacy (%) (10 µM)” value in assay [2] was -1.5%.

As to `COC(=O)/C=C/c1cccc(N(Cc2ccc(-c3ccc(N(C)C)cc3)cc2)C(=O)c2cccnc2)c1` [Compound 13c], the “FXR Efficacy (%) (10 µM)” value in assay [1] came out at 68.1%. The “TGR5 Efficacy (%) (10 µM)” value in assay [2] is on record as 1.7%.

Turning to `Cc1cnccc1C(=O)N(Cc1ccc(-c2ccc(N(C)C)cc2)cc1)c1cc(Cl)cc(Cl)c1C` [Compound 13r], the “FXR Efficacy (%) (1 µM)” value in assay [1] is 8.6%. Moreover, in assay [2], the “TGR5 agonist activity (in words)” value was “good potency against TGR5” and the “TGR5 Efficacy (%) (10 µM)” value came out at 91.9%.
